Assay in all cases: DTP human tumour cell line panel, 48 h
Assay [1] has as its system SF-268 CNS.
In assay [2] the test system is MDA-MB-435.
Assay [3] has as its system 786-0 renal.
Assay [4] has as its system NCI-H226 lung.
For assay [5], the system named is U251 CNS.
Assay [6] deals with SNB-75 CNS.
Assay [7] deals with HT29 colon.
Assay [8] has as its system OVCAR-5 ovarian.
For assay [9], the system named is A549 NSCLC.
The test system of assay [10] is OVCAR-8 ovarian.

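Test compounds were applied to cells in 96-well plates for 48 hours at 5 doses. GI50 is the concentration that inhibits growth by half. TGI: concentration producing complete growth inhibition.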

A word on the GI50: it is the concentration giving 50% growth inhibition. As a reminder, the TGI is the concentration giving total growth inhibition.

As to `COC1=CC(=O)c2nc(-c3ccncc3)[nH]c2C1=O`, the GI50 is over 100 µM in assay [1]; over 100 µM in assay [2]; over 100 µM in assay [3]; over 100 µM in assay [4]; over 100 µM in [5]; 88.3 µM in [6]. In addition, the GI50 in assay [7], in assay [8], in [9] and in assay [10] was over 100 µM each time. Further, the TGI in assay [1], in assay [2], in [3], in assay [4], in assay [5] and in assay [6] was over 100 µM each time. Also, the TGI in [7], in assay [8], in [9] and in [10] was over 100 µM each time.

In the case of `OCc1ccc(N2CCC2c2ccc(F)cc2)cc1Cl` (configuration not stated), the GI50 in assay [1] is 35 µM; in assay [2], 26.6 µM; in assay [3] it was 22.6 µM; in assay [4] it was 0.0912 µM; in assay [5] it was 3.92 µM; in [6], 20.6 µM. Also, the GI50 is 5.13 µM in [7], 0.256 µM in assay [8], 7.44 µM in [9] and 23.6 µM in assay [10]. The TGI in assay [1] was over 100 µM; in assay [2], over 75.7 µM; in assay [3] it was over 61.5 µM; in assay [4] it was 0.322 µM; in assay [5], over 46.5 µM; in assay [6], over 100 µM. For the same compound, the TGI in assay [7] is 33 µM; in [8], 1.9 µM; in assay [9], 64 µM; in assay [10], over 100 µM.

In the case of `O=C1C=C(Cl)C(=O)C(c2ccc(Cl)cc2)=C1`, the TGI was 42.3 µM in [1]; 46.6 µM in assay [2]; 38.1 µM in [3]; 85.5 µM in assay [4]; 30 µM in assay [5]; 59.8 µM in assay [6]. Besides, the TGI is 62.8 µM in assay [7], 39.6 µM in assay [8], over 100 µM in assay [9] and 40.7 µM in assay [10].

As to `COc1cc(-c2nn(-c3ccc(NC(=O)c4ccc(Cl)c(C(F)(F)F)c4)cc3)cc2-c2ccncc2)ccc1Cl`, the GI50 is 4.03 µM in assay [1]; 2.41 µM in assay [2]; 1.2 µM in assay [3]; 5.31 µM in [4]; 2.08 µM in assay [5]; 1.23 µM in [6]. Further, the GI50 in [7] is 1.8 µM; in [8], 4.58 µM; in assay [9], 4.94 µM; in assay [10] it was 5.43 µM. The TGI in assay [1] was over 100 µM; in [2], over 100 µM; in [3] it was 2.86 µM; in assay [4], over 100 µM; in [5], 56.7 µM; in assay [6], 6.83 µM. For the same compound, the TGI in assay [7] is 4.25 µM; in assay [8] it was over 39.6 µM; in [9], over 100 µM; in assay [10], over 100 µM.

Turning to `CC1(C)CCc2c(c3c(c4c(=O)c(O)c(-c5ccc(O)cc5)oc24)OC(C)(C)CC3)O1`, the GI50 in assay [1] was 30.5 µM; in assay [2], over 100 µM; in assay [3] it was 37.7 µM; in assay [4] it was 58.5 µM; in assay [5], 24.7 µM; in assay [6] it was 19.5 µM. In addition, the GI50 was over 100 µM in [7], over 100 µM in [8], over 100 µM in [9] and 36.3 µM in assay [10]. Further, the TGI is over 100 µM in assay [1]; over 100 µM in [2]; over 100 µM in assay [3]; over 100 µM in assay [4]; 65.5 µM in [5]; 41.9 µM in assay [6]. In addition, the TGI in assay [7], in [8], in assay [9] and in [10] was over 100 µM each time.

Take `CC(C)CCC[C@@H](C)[C@H]1CC[C@H]2[C@@H]3CC=C4C[C@@H](C(C(=O)O)C(=O)O)CC[C@]4(C)[C@H]3CC[C@]12C`: the GI50 in assay [1] is 0.157 µM; in assay [2], 0.0721 µM; in assay [3] it was 0.288 µM; in assay [4], 0.209 µM; in assay [5], 0.129 µM; in [6], 0.166 µM. Further, the GI50 in assay [7] was 0.224 µM; in [8], 0.198 µM; in assay [9], 0.145 µM; in assay [10] it was 0.158 µM. In addition, the TGI in assay [1] was found to be 1.65 µM; in [2] it was 0.188 µM; in assay [3], 2.51 µM; in assay [4] it was 0.622 µM; in [5], 0.408 µM; in [6], 1.47 µM. For the same compound, the TGI in assay [7] came to 1.06 µM; in assay [8] it was 5.56 µM; in assay [9] it was 0.547 µM; in assay [10], 0.807 µM.

As for `CCCCCN(CCCCC)CCCNc1c2c(nc3ccc(Cl)cc13)CCCC2`, the GI50 is 3.67 µM in assay [1]; 2.23 µM in assay [2]; 3.91 µM in [3]; 2.05 µM in [4]; 2.58 µM in assay [5]; 2.38 µM in [6]. Further, the GI50 is 0.501 µM in [7], 3.36 µM in assay [8], 3.29 µM in [9] and 2.9 µM in [10]. The TGI in [1] was determined as 14.5 µM; in [2] it was 6.56 µM; in [3] it was 13.6 µM; in assay [4], 6.71 µM; in assay [5], 7.37 µM; in [6] it was 11.9 µM. The TGI in [7] worked out at 7.01 µM; in assay [8], 15 µM; in assay [9] it was 10.8 µM; in assay [10] it was 8.88 µM.

Take `O=C1C(Cl)=C(Nc2cccc(Cl)c2)C(=O)N1Cc1ccc(Cl)cc1Cl`: the GI50 in [1] is 1.37 µM; in assay [2], 1.24 µM; in assay [6], 1.29 µM; in [7], 0.971 µM; in assay [8], 11.6 µM; in [9] it was 3.85 µM. The GI50 in [10] was 0.0603 µM. Besides, the TGI amounted to 25 µM in [1]; 16 µM in [2]; 4.93 µM in [3]; 2.26 µM in assay [4]; 13.7 µM in [5]; 9.92 µM in assay [6]. Moreover, the TGI is 14.7 µM in assay [7], 37.1 µM in assay [8], 19.6 µM in assay [9] and over 36.1 µM in [10].

Consider `C#Cc1ccc(-n2c(/C=C/c3ccc(C(F)(F)F)cc3)nc3ncccc3c2=O)cc1`, for which the GI50 is 2.27 µM in assay [1]; 2.27 µM in assay [2]; 2.06 µM in assay [3]; 1.99 µM in [4]; 1.67 µM in assay [5]; 1.81 µM in [6]. The GI50 is 2.03 µM in assay [7], 1.94 µM in assay [8], 1.83 µM in assay [9] and 1.87 µM in assay [10]. Besides, the TGI in [1] was determined as 5.95 µM; in assay [2] it was 6.48 µM; in assay [3], 3.7 µM; in assay [4], 4.09 µM; in assay [5], 3.13 µM; in assay [6], 7.22 µM. Further, the TGI worked out at 3.95 µM in [7], 3.56 µM in [8], 4.56 µM in assay [9] and 4.67 µM in [10].

Values taken from PubChem BioAssay (NCI).
